pEC50: −log10 of the molar value. Numbered stars: 1 amine (or outer) side, 2 acyl side, 3 side chain; on linkers, the order of the positions; unused ones are H or OH. Bridge positions count the residues as written; N and C are the ends. Square brackets hold non-standard residues; d marks the D form. Peptide text beside a SMILES is read from it. ξ: configuration not given here. ξαMeNle(6-ylidene) = CC(CCCC=[*:3])(N[*:1])C(=O)[*:2]; X1 = CC(CCCCCCC=[*:3])(N[*:1])C(=O)[*:2]; R8 = C=CCCCCCC[C@@](C)(N)C(=O)O; S5 = C=CCCC[C@](C)(N)C(=O)O
How the values were obtained:
Type in all cases: cell-based
[1] = tested on: cancer cell lines; experiment: Inhibition of cancer cell proliferation, general statements
Protocol: (§1) MCF-7, NCI-H187, NCI-H69, NCI-H526 and H5B cells were seeded at a density of 5000 cells/well; NCI-H524 and NCI-H82 were seeded at a density of 2500 cells/well; HL-60 and NCI-H510A at 10000 cells/well in 100 μl of medium in 96 well plates. After 24 h, the compounds to be tested were added to calculate the dose/response curve at the starting concentration of 100 μM with serial dilutions (1:1). Controls were the untreated cells. Each experiment was performed in triplicate.
(§2) Cells were incubated during 72 h in incubator under CO2 atmosphere at 37° C. Cell viability was measured by means of MTT (3-(4,5-dimethylthiazol-2-yl)-2,5-diphenyltetrazolium bromide) assay, Alamar Blue® (Biosource DAL1100) and Hexosaminidase activity test, consecutively, following manufacturer instructions.
(§3) Data analysis was performed calculating the percentage of cell viability normalized vs. the values of negative control, which was considered equal to 100%. The dose/response curve was fitted through the sigmoidal equation dose-response (variable slope) and the EC50 values were calculated as follow: Y=Bottom+(Top−Bottom)/(1+10^{[(Log EC50−X)*HillSlope]},

[2] = tested on: NCI-H187; settings: 72 h
Protocol: NCI-H187, epithelial (small cell lung cancer, SCLC), ATCC-CRL-5804;
(§4) Cell line MCF-7 was cultured in incubator under CO2 (6%) at 37° C. in DMEM high glucose (Dulbecco's Modified Eagle Solution, Gibco-BRL 31966-21) medium with 10% fetal bovine serum inactivated (FBS) (Gibco-BRL 10106-169). Cell lines HL-60, NCI-H524, NCI-H526, NCI-H69, NCI-H82, NCI-H187 and H5B were cultured in an incubator at 37° C. in RPMI-1640 (Sigma R8758) medium with 10% of fetal bovine serum inactivated (FBS) and 2 mM glutamine (Sigma G7513). Cell line NCI-H510A was cultured in incubator in F12K medium with 10% of fetal bovine serum inactivated (FBS). Cell line GBM-18 and GBM-27 were cultured in incubator under CO2 (6%) at 37° C. in complete medium (Neurobasal+B27+Glutamax+Growth factors).
(§5) During the amplification step and the assays, adherent cells were rinsed with DPBS (Dulbecco's Phosphate Buffered Saline, Sigma D1283) three times and afterward treated for 5 minutes with trypsin ([…]) (Gibco-BRL, 15400054) in solution of DPBS at 37° C., and, once detached, transferred in the culturing medium. No-adherent cells were centrifuged and transferred in the culturing medium. Cells were counted in a Neubauer chamber after labelling with Tripan-Blue.
as §1, §2
(§6) MTT: 1. Stock solution of MTT (475989 Calbiochem) was 5 mg/ml in PBS 1×. As negative control (experiment noise) 3 wells were treated with 20 μl/well of a solution of SDS 10% in H2O. The same control was used for Alamar Blue/Hexosaminidase. 10 μl/well of MTT solution were added and the plate was incubated for 3-4 hr. The medium was discarded and 100 μl of extracting buffer (PBS 1×, 15% SDS, 50% […] N,N-Dimethylformamide, pH 4,7) were added to each well. Plates were incubated for 16 h at room temperature under orbital shaking. Absorbance at 570 nm was finally measured.
(§7) Alamar Blue: 10 μl Alamar Blue solution was added to each well and the plates were incubated for […] in the incubator. Fluorescence ratio at 535/590 (excitation/emission) was measured in Cytofluor (Millipore) fluorimeter. Blank control was determined by lysis of untreated cells with con 2% of Triton X100, right before adding Alamar Blue solution.
(§8) Hexosaminidase activity test: after Alamar Blue lecture, medium was discarded and plates were rinsed once with PBS. 60 μl hexosaminidase substrate (p-nitrophenol-N-acetyl-beta-D-glucosamide 7.5 mM [Sigma N-9376], sodium citrate 0.1 M, pH 5.0, 0.25% Triton X-100) was added to each well and the plates were incubated at 37° C. for 2-5 h, according to the cell type (hexosaminidase activity changes according to the cell type). […] Blank control was the same as described before.
as §3

[3] = tested on: NCI-H510A; settings: 72 h
Protocol: NCI-510A, epithelial (small cell lung cancer, SCLC), ATCC-HBT-124; and Hepatocytes (normal liver), from a donor was provided by Foundation DTI-Donation & Transplantation Institute from surgical wastes and from organs not suitable for transplantation
as §4, §5, §1, §2, §6, §7, §8, §3

[4] = tested on: NCI-H82; settings: 72 h
Protocol: NCI-H82, epithelial (small cell lung cancer, SCLC), ATCC-CRL-5811;
as §4, §5, §1, §2, §6, §7, §8, §3

Row | Compound | inhibition of cancer cell proliferation (in words) [1] | pEC50 [2] | pEC50 [3] | pEC50 [4]
1 | CC(C)C[C@@H]1NC(=O)[C@H](C)NC(=O)[C@H](C)NC(=O)[C@H](Cc2ccccc2)NC(=O)[C@](C)(NC(=O)[C@H](CC(C)C)NC(=O)[C@H](CC(N)=O)NC(=O)[C@@H](NC(=O)[C@H](CC(C)C)NC(=O)[C@H](CCCCN)NC(=O)[C@@H](NC(=O)[C@@H](N)CCCNC(=N)N)C(C)C)C(C)C)CCCCCCC=CCCC[C@@](C)(C(=O)N[C@H](C(=O)N2CCC[C@H]2C(N)=O)C(C)C)NC(=O)[C@H](CCC(=O)O)NC(=O)[C@H](CCCNC(=N)N)NC1=O [IDP-H14-A09] (H-RVKLVNL[R8]FAALRE[S5]VP-NH2; staple 8-15; N-terminus assumed) | active | ~5.12 | ~5.12 | ~5.12
2 | CC(C)C[C@H](NC(=O)[C@H](CCCCN)NC(=O)[C@@H](NC(=O)[C@@H](N)CCCNC(=N)N)C(C)C)C(=O)N[C@H](C(=O)N[C@@H](CC(N)=O)C(=O)N[C@@H](CC(C)C)C(=O)NC1(C)CCCCCCC=CCCCC(C)(C(=O)N[C@H](C(=O)N2CCC[C@H]2C(N)=O)C(C)C)NC(=O)[C@H](C)NC(=O)[C@H](CCCNC(=N)N)NC(=O)[C@H](CC(C)C)NC(=O)[C@H]([C@@H](C)O)NC(=O)[C@H](C)NC(=O)[C@H](Cc2ccccc2)NC1=O)C(C)C (stereo partly drawn) [IDP-H14-A12] (H-RVKLVNL[X1]FATLRA[ξαMeNle(6-ylidene)]VP-NH2; staple 8-15; N-terminus and C-terminus assumed) | active | ~5.12 | ~5.12 | ~5.12
3 | CC(C)C[C@H](NC(=O)[C@H](CCCCN)NC(=O)[C@@H](NC(=O)[C@H](CCCNC(=N)N)NC(=O)[C@H](CCCNC(=N)N)NC(=O)[C@H](CCCNC(=N)N)NC(=O)[C@H](CCCNC(=N)N)NC(=O)[C@H](CCCNC(=N)N)NC(=O)[C@H](CCCNC(=N)N)NC(=O)[C@H](CCCNC(=N)N)NC(=O)[C@@H](N)CCCNC(=N)N)C(C)C)C(=O)N[C@H](C(=O)N[C@@H](CC(N)=O)C(=O)N[C@@H](CC(C)C)C(=O)NC1(C)CCCCCCC=CCCCC(C)(C(=O)N[C@H](C(=O)N2CCC[C@H]2C(N)=O)C(C)C)NC(=O)[C@H](CCC(=O)O)NC(=O)[C@H](CCCNC(=N)N)NC(=O)[C@H](CC(C)C)NC(=O)[C@H]([C@@H](C)O)NC(=O)[C@H](C)NC(=O)[C@H](Cc2ccccc2)NC1=O)C(C)C (stereo partly drawn) [IDP-H14-CPP] (H-RRRRRRRRVKLVNL[X1]FATLRE[ξαMeNle(6-ylidene)]VP-NH2; staple 15-22; N-terminus and C-terminus assumed) | – | ~5.12 | ~5.12 | ~5.12
4 | CC(C)C[C@H](NC(=O)[C@H](CCCCN)NC(=O)[C@@H](NC(=O)[C@@H](N)CCCNC(=N)N)C(C)C)C(=O)N[C@H](C(=O)N[C@@H](CC(N)=O)C(=O)N[C@@H](CC(C)C)C(=O)NC1(C)CCCCCCC=CCCCC(C)(C(=O)N[C@H](C(=O)N2CCC[C@H]2C(N)=O)C(C)C)NC(=O)[C@H](Cc2ccccc2)NC(=O)[C@H](CCCNC(=N)N)NC(=O)[C@H](CC(C)C)NC(=O)[C@H]([C@@H](C)O)NC(=O)[C@H](C)NC(=O)[C@H](Cc2ccccc2)NC1=O)C(C)C (stereo partly drawn) [IDP-H14-F12] (H-RVKLVNL[X1]FATLRF[ξαMeNle(6-ylidene)]VP-NH2; staple 8-15; N-terminus and C-terminus assumed) | active | ~5.12 | ~5.12 | ~5.12
5 | CC(C)C[C@H](NC(=O)[C@H](CCCCN)NC(=O)[C@@H](NC(=O)[C@@H](N)CCCNC(=N)N)C(C)C)C(=O)N[C@H](C(=O)N[C@@H](CC(N)=O)C(=O)N[C@@H](CC(C)C)C(=O)NC1(C)CCCCCCC=CCCCC(C)(C(=O)N[C@H](C(=O)N[C@@H](Cc2ccccc2)C(N)=O)C(C)C)NC(=O)[C@H](CCC(=O)O)NC(=O)[C@H](CCCNC(=N)N)NC(=O)[C@H](CC(C)C)NC(=O)[C@H]([C@@H](C)O)NC(=O)[C@H](C)NC(=O)[C@H](Cc2ccccc2)NC1=O)C(C)C (stereo partly drawn) [IDP-H14-F14] (H-RVKLVNL[X1]FATLRE[ξαMeNle(6-ylidene)]VF-NH2; staple 8-15; N-terminus and C-terminus assumed) | active | ~5.12 | ~5.12 | ~5.12
6 | CC(C)C[C@@H]1NC(=O)[C@H](C)NC(=O)[C@H](CCC(N)=O)NC(=O)[C@H](Cc2ccccc2)NC(=O)C(C)(NC(=O)[C@H](CC(C)C)NC(=O)[C@H](CC(N)=O)NC(=O)[C@@H](NC(=O)[C@H](CC(C)C)NC(=O)[C@H](CCCCN)NC(=O)[C@@H](NC(=O)[C@@H](N)CCCNC(=N)N)C(C)C)C(C)C)CCCCCCC=CCCCC(C)(C(=O)N[C@H](C(=O)N2CCC[C@H]2C(N)=O)C(C)C)NC(=O)[C@H](CCC(N)=O)NC(=O)[C@H](CCCNC(=N)N)NC1=O (stereo partly drawn) [IDP-H14-H2-01] (H-RVKLVNL[X1]FQALRQ[ξαMeNle(6-ylidene)]VP-NH2; staple 8-15; N-terminus and C-terminus assumed) | active | ~5.12 | ~5.12 | ~5.12
7 | CC(C)C[C@H](NC(=O)[C@H](CCCCN)NC(=O)[C@@H](NC(=O)[C@@H](N)CCCNC(=N)N)C(C)C)C(=O)N[C@H](C(=O)N[C@@H](CC(N)=O)C(=O)N[C@@H](CC(C)C)C(=O)N[C@]1(C)CCCCCCC=CCCC[C@@](C)(C(=O)N[C@H](C(=O)N2CCC[C@H]2C(N)=O)C(C)C)NC(=O)[C@H](CCC(=O)O)NC(=O)[C@H](CCCNC(=N)N)NC(=O)[C@H](CC(C)C)NC(=O)[C@H]([C@@H](C)O)NC(=O)[C@H](CCC(N)=O)NC(=O)[C@H](Cc2ccccc2)NC1=O)C(C)C [IDP-H14-Q9] (H-RVKLVNL[R8]FQTLRE[S5]VP-NH2; staple 8-15; N-terminus assumed) | active | ~4.90 | – | –
8 | CC(C)C[C@H](NC(=O)[C@H](CC(N)=O)NC(=O)[C@@H](NC(=O)[C@H](CC(C)C)NC(=O)[C@H](CCCCN)NC(=O)[C@@H](NC(=O)[C@H](CCCNC(=N)N)NC(=O)[C@H](CCCNC(=N)N)NC(=O)[C@H](CCCNC(=N)N)NC(=O)[C@H](CCCNC(=N)N)NC(=O)[C@H](CCCNC(=N)N)NC(=O)[C@H](CCCNC(=N)N)NC(=O)[C@H](CCCNC(=N)N)NC(=O)[C@@H](N)CCCNC(=N)N)C(C)C)C(C)C)C(=O)NCC(=O)N[C@@H](Cc1ccccc1)C(=O)N[C@@H](C)C(=O)N[C@H](C(=O)N[C@@H](CC(C)C)C(=O)N[C@@H](CCCNC(=N)N)C(=O)N[C@@H](CCC(=O)O)C(=O)N[C@@H](Cc1c[nH]cn1)C(=O)N[C@H](C(=O)N1CCC[C@H]1C(N)=O)C(C)C)[C@@H](C)O [LH02] (H-RRRRRRRRVKLVNLGFATLREHVP-NH2; N-terminus and C-terminus assumed) | – | ~5.00 | – | ~5.15
